# According to ChEMBL document CHEMBL2074478, “Cisplatin induces renal expression of P-glycoprotein and canalicular multispecific organic anion transporter” (Am J Physiol, 1999):
# Columns and labels:
# [1] = target: ATP-binding cassette sub-family C member 2 (Rattus norvegicus, UniProt Q63120); assay: (§1) TP_TRANSPORTER: Western in vivo, kidney of SD rat; assay type: functional, organism-based, Sprague-Dawley
# [2] = target: Multidrug resistance protein 1a (Rattus norvegicus) (UniProt Q6PSM0); assay: as §1; assay type: functional, organism-based; details: Sprague-Dawley
# [3] = target: Multidrug resistance protein 1a (Rattus norvegicus) (UniProt Q6PSM0); assay: TP_TRANSPORTER: Western in vivo, intestine of SD rat; assay type: functional, organism-based; details: Sprague-Dawley
# [4] = target: Multidrug resistance protein 1a (Rattus norvegicus) (UniProt Q6PSM0); assay: TP_TRANSPORTER: Western in vivo, liver of SD rat; assay type: functional, organism-based; details: Sprague-Dawley
# ATP-binding cassette sub-family C member 2, sequence (Q63120 whole entry): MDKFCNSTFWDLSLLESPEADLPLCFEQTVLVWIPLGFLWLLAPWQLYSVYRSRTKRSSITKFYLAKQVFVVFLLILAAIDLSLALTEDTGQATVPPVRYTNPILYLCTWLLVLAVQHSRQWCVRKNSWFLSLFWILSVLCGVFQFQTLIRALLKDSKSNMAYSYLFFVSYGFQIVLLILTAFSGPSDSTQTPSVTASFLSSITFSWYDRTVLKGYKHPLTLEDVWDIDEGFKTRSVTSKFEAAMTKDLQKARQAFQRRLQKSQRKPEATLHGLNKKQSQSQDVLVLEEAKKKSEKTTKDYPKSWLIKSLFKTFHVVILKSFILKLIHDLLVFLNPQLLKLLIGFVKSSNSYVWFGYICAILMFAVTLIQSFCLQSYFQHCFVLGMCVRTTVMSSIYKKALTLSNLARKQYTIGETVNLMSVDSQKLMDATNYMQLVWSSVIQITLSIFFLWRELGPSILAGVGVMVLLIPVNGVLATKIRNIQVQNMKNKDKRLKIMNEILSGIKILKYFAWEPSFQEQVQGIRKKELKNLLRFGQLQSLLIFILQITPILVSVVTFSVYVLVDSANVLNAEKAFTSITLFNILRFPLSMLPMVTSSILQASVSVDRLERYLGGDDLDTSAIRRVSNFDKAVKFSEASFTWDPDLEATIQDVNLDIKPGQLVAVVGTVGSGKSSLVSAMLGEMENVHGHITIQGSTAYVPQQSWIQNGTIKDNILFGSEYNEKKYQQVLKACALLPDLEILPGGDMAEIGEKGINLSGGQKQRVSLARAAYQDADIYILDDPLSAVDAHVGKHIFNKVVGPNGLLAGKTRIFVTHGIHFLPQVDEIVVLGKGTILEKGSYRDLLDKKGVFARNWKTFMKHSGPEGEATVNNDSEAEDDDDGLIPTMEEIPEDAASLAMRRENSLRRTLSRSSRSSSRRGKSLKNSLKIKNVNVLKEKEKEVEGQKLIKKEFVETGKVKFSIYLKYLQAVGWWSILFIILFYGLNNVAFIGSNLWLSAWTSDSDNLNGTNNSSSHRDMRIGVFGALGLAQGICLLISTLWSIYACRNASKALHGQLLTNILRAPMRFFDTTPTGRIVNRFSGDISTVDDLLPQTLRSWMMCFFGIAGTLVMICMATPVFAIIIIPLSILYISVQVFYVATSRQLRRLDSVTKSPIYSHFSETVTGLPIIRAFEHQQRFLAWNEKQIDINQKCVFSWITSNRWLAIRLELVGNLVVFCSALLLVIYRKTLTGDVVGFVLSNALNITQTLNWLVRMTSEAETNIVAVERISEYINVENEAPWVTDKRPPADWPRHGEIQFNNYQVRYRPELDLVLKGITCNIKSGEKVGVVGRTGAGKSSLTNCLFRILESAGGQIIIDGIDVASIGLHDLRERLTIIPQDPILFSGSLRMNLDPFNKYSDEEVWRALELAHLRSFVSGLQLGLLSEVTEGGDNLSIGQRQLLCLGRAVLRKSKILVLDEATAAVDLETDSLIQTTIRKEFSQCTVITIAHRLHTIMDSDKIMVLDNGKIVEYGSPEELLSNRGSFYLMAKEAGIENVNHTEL
Sequence,Activity [1],Activity [2],Activity [3],Activity [4]
CISPLATIN [listing 1 of 2 here],inducer [+],–,–,–
CISPLATIN [listing 2 of 2 here],–,inducer [+],inducer [+],inducer [+]
